Source: BindingDB's records for doi:10.1021/jm0499108 (University of Michigan, 2004)

Biological target: T1, E3 ubiquitin-protein ligase XIAP [241-356] (Homo sapiens, UniProt P98170)
T1 construct: 241-356
Test: Fluorescence Polarization Competitive Binding Assay
Details: pH 7.5; 22 °C
Method: A quantitative in vitro binding assay using the fluorescence polarization (FP) based method was developed and used to determine the binding affinity of Smac mimetics to XIAP protein. The polarization values were measured after 3 hrs of incubation when the binding reached equilibrium. […] Curve fitting was performed using Prism ([sequence]). The binding affinity (Ki) of tested compound was calculated using the equation developed for computing the Ki value in FP-based binding assays.

T1 sequence (P98170 241-356): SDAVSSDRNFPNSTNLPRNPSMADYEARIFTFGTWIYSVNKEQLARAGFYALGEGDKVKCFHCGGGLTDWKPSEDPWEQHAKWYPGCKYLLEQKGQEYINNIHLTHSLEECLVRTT

`C[C@H](N)C(=O)N[C@H]1CC[C@H]2CC[C@@H](C(=O)Nc3ccccc3)N2C1=O` [(3S,6S,8aS)-6-[(2S)-2-aminopropanamido]-5-oxo-N-phenyl-octahydroindolizine-3-carboxamide] was tested, and the Ki was over 100 µM.
